These results are taken from patent US10537558B2 (Bantam Pharmaceutical, LLC, priority 2015, dated 2020).

For the experiment, the system named is BJAB cells. Put plainly: BJAB cell proliferation (Cell Titer Glo). In kind it is cell-based. Particulars: Homo sapiens, read-out: EC50. Here is the method: Cells were seeded in white Corning Costar 96-well assay plates at 2500 cells/well in 50 μL of medium. Serial dilutions of test compounds were made in cell culture medium/FBS+0.2% DMSO, and transferred to assay plates in a volume of 50 μL (DMSO at 0.1% final). Plates were maintained at 37° C. for approximately 72 hours. The effect of compounds on cell proliferation was evaluated using the Cell Titer Glo reagent (Promega), according to the manufacturer's instructions. Briefly, 100 μL of reagent was added per well, and after a 10 minute incubation luminescence values were determined on a plate reader (Tecan F200PRO). The percent of luminescence signal relative to untreated controls was calculated for each compound concentration, and EC50 values were determined from dose response data by non-linear regression analysis using Prism (GraphPad). The mTor inhibitor Torin1 (Liu, et al. (2010) J. Med. Chem. 53, 7146.) was used as a control. The data are summarized in the compound table provided above.
For orientation: ATP-based viability assays read luminescence as a measure of living cells.
By EC50 is commonly meant the concentration at which the effect is half-maximal. Take `COC(=O)c1c(Cc2ccccc2[N+](=O)[O-])c(C)nn1-c1nc(-c2ccc(Cl)c(Cl)c2)cs1` [Compound 1, methyl 1-(4-(3,4-dichlorophenyl)thiazol-2-yl)-3-methyl-4-(2-nitrobenzyl)-1H-pyrazole-5-carboxylate]: the EC50 was more than 50 µM. Next, `Cc1nn(-c2nc(-c3ccc(Cl)c(Cl)c3)cs2)c(C(=O)O)c1Cc1ccccc1[N+](=O)[O-]` [Compound 2, 1-(4-(3,4-dichlorophenyl)thiazol-2-yl)-3-methyl-4-(2-nitrobenzyl)-1H-pyrazole-5-carboxylic acid]: more than 50 µM; `CCSc1sc(-n2nc(C)c(Cc3ccccc3[N+](=O)[O-])c2C(=O)OC)nc1-c1ccc(Cl)c(Cl)c1` [Compound 3, methyl 1-(4-(3,4-dichlorophenyl)-5-(ethylthio)thiazol-2-yl)-3-methyl-4-(2-nitrobenzyl)-1H-pyrazole-5-carboxylate]: more than 80 µM; `CCSc1sc(-n2nc(C)c(Cc3ccccc3[N+](=O)[O-])c2C(=O)O)nc1-c1ccc(Cl)c(Cl)c1` [Compound 4, 1-(4-(3,4-dichlorophenyl)-5-(ethylthio)thiazol-2-yl)-3-methyl-4-(2-nitrobenzyl)-1H-pyrazole-5-carboxylic Acid]: 50 to 100 µM.

In the case of `COC(=O)c1c(Cc2ccccc2[N+](=O)[O-])c(C)nn1-c1nc(-c2ccc(Cl)c(Cl)c2)c(SC(C)C)s1` [Compound 5, methyl 1-(4-(3,4-dichlorophenyl)-5-(isopropylthio)thiazol-2-yl)-3-methyl-4-(2-nitrobenzyl)-1H-pyrazole-5-carboxylate], the EC50 is more than 80 µM.

As to `Cc1nn(-c2nc(-c3ccc(Cl)c(Cl)c3)c(SC(C)C)s2)c(C(=O)O)c1Cc1ccccc1[N+](=O)[O-]` [Compound 6, 1-(4-(3,4-dichlorophenyl)-5-(isopropylthio)thiazol-2-yl)-3-methyl-4-(2-nitrobenzyl)-1H-pyrazole-5-carboxylic acid], the EC50 is 25 to 50 µM. For the molecule `COC(=O)c1c(Cc2ccccc2NS(C)(=O)=O)c(C)nn1-c1nc(-c2ccc(Cl)c(Cl)c2)cs1` [Compound 7, methyl 1-(4-(3,4-dichlorophenyl)thiazol-2-yl)-3-methyl-4-(2-(methylsulfonamido)benzyl)-1H-pyrazole-5-carboxylate], the EC50 is more than 80 µM. As for `Cc1nn(-c2nc(-c3ccc(Cl)c(Cl)c3)cs2)c(C(=O)O)c1Cc1ccccc1NS(C)(=O)=O` [Compound 8, 1-(4-(3,4-dichlorophenyl)thiazol-2-yl)-3-methyl-4-(2-(methylsulfonamido)benzyl)-1H-pyrazole-5-carboxylic acid], the EC50 is more than 80 µM. As to `CCCSc1sc(-n2nc(C)c(Cc3ccccc3[N+](=O)[O-])c2C(=O)OC)nc1-c1ccc(Cl)c(Cl)c1` [Compound 9, methyl 1-(4-(3,4-dichlorophenyl)-5-(propylthio)thiazol-2-yl)-3-methyl-4-(2-nitrobenzyl)-1H-pyrazole-5-carboxylate], the EC50 was more than 80 µM.

For the molecule `CCCSc1sc(-n2nc(C)c(Cc3ccccc3[N+](=O)[O-])c2C(=O)O)nc1-c1ccc(Cl)c(Cl)c1` [Compound 10, 1-(4-(3,4-dichlorophenyl)-5-(propylthio)thiazol-2-yl)-3-methyl-4-(2-nitrobenzyl)-1H-pyrazole-5-carboxylic acid], the EC50 is 25 to 50 µM. As to `CCCCSc1sc(-n2nc(C)c(Cc3ccccc3[N+](=O)[O-])c2C(=O)OC)nc1-c1ccc(Cl)c(Cl)c1` [Compound 11, methyl 1-(5-(butylthio)-4-(3,4-dichlorophenyl)thiazol-2-yl)-3-methyl-4-(2-nitrobenzyl)-1H-pyrazole-5-carboxylate], the EC50 is more than 80 µM. Next, `CCCCSc1sc(-n2nc(C)c(Cc3ccccc3[N+](=O)[O-])c2C(=O)O)nc1-c1ccc(Cl)c(Cl)c1` [Compound 12, 1-(5-(butylthio)-4-(3,4-dichlorophenyl)thiazol-2-yl)-3-methyl-4-(2-nitrobenzyl)-1H-pyrazole-5-carboxylic Acid]: more than 80 µM; `CCCSc1sc(-n2nc(C)c(Cc3ccccc3NS(C)(=O)=O)c2C(=O)O)nc1-c1ccc(Cl)c(Cl)c1` [Compound 13, 1-(4-(3,4-dichlorophenyl)-5-(propylthio)thiazol-2-yl)-3-methyl-4-(2-(methylsulfonamido)benzyl)-1H-pyrazole-5-carboxylic Acid]: 25 to 50 µM; `CCCSc1sc(-n2nc(C)c(Cc3ccccc3NS(C)(=O)=O)c2C(=O)N2CCC(CN)CC2)nc1-c1ccc(Cl)c(Cl)c1` [Compound 14, N-(2-((5-(4-(aminomethyl)piperidine-1-carbonyl)-1-(4-(3,4-dichlorophenyl)-5-(propylthio)thiazol-2-yl)-3-methyl-1H-pyrazol-4-yl)methyl)phenyl)methanesulfonamide]: 10 to 25 µM.

With `Cc1nn(-c2nc(-c3ccc(Cl)c(Cl)c3)c(SC(C)C)s2)c(C(=O)O)c1Br` [Compound 15, 4-bromo-1-(4-(3,4-dichlorophenyl)-5-(isopropylthio)thiazol-2-yl)-3-methyl-1H-pyrazole-5-carboxylic Acid], the EC50 lay within 10 to 25 µM.

As for `Cc1cc(C(=O)O)n(-c2nc(-c3ccc(Cl)c(Cl)c3)c(SC(C)C)s2)n1` [Compound 16, 1-(4-(3,4-dichlorophenyl)-5-(isopropylthio)thiazol-2-yl)-3-methyl-1H-pyrazole-5-carboxylic Acid], the EC50 lay within 50 to 100 µM. Turning to `Cc1nn(-c2nc(-c3ccc(Cl)c(Cl)c3)c(SC(C)C)s2)c(C(=O)O)c1-c1ccc2nccn2c1` [Compound 17, 1-(4-(3,4-dichlorophenyl)-5-(isopropylthio)thiazol-2-yl)-4-(imidazo[1,2-a]pyridin-6-yl)-3-methyl-1H-pyrazole-5-carboxylic Acid], the EC50 is 10 to 25 µM.

Turning to `Cc1nn(-c2nc(-c3ccc(Cl)c(Cl)c3)c(SC(C)C)s2)c(C(=O)O)c1-c1ccccc1` [Compound 18, 1-(4-(3,4-dichlorophenyl)-5-(isopropylthio)thiazol-2-yl)-3-methyl-4-phenyl-1H-pyrazole-5-carboxylic Acid], the EC50 fell in the range of 1 to 5 µM.

For the molecule `Cc1nn(-c2nc(-c3ccc(Cl)c(Cl)c3)c(SC3CCCCC3)s2)c(C(=O)O)c1Cc1ccccc1[N+](=O)[O-]` [Compound 19, 1-(5-(cyclohexylthio)-4-(3,4-dichlorophenyl)thiazol-2-yl)-3-methyl-4-(2-nitrobenzyl)-1H-pyrazole-5-carboxylic Acid], the EC50 was 10 to 25 µM. Next, `Cc1nn(-c2nc(-c3ccc(Cl)c(Cl)c3)c(SC(C)C)s2)c(C(=O)O)c1-c1cc2ccccc2o1` [Compound 20, 4-(benzofuran-2-yl)-1-(4-(3,4-dichlorophenyl)-5-(isopropylthio)thiazol-2-yl)-3-methyl-1H-pyrazole-5-carboxylic Acid]: 5 to 10 µM; `Cc1nn(-c2nc(-c3ccc(Cl)c(Cl)c3)c(SC(C)C)s2)c(C(=O)O)c1-c1ccnc(F)c1` [Compound 21, 1-(4-(3,4-dichlorophenyl)-5-(isopropylthio)thiazol-2-yl)-4-(2-fluoropyridin-4-yl)-3-methyl-1H-pyrazole-5-carboxylic acid]: 5 to 10 µM. `Cc1cc(-c2c(C)nn(-c3nc(-c4ccc(Cl)c(Cl)c4)c(SC(C)C)s3)c2C(=O)O)cc(C)n1` [Compound 23, 1-(4-(3,4-dichlorophenyl)-5-(isopropylthio)thiazol-2-yl)-4-(2,6-dimethylpyridin-4-yl)-3-methyl-1H-pyrazole-5-carboxylic Acid]: the concentration giving a half-maximal response (EC50) was less than 1 µM.

For `Cc1nn(-c2nc(-c3ccc(Cl)c(Cl)c3)c(SC(C)C)s2)c(C(=O)O)c1-c1cc(F)cc(F)c1` [Compound 24, 1-(4-(3,4-dichlorophenyl)-5-(isopropylthio)thiazol-2-yl)-4-(3,5-difluorophenyl)-3-methyl-1H-pyrazole-5-carboxylic Acid], the EC50 was in the range of 1 to 5 µM. Take `Cc1nn(-c2nc(-c3cc(Cl)ccc3F)c(SC(C)C)s2)c(C(=O)O)c1-c1cc(Cl)cc(Cl)c1` [Compound 25, 1-(4-(5-chloro-2-fluorophenyl)-5-(isopropylthio)thiazol-2-yl)-4-(3,5-dichlorophenyl)-3-methyl-1H-pyrazole-5-carboxylic Acid]: the EC50 is 1 to 5 µM. Next, `Cc1cc(-c2c(C)nn(-c3nc(-c4cc(Cl)ccc4F)c(SC(C)C)s3)c2C(=O)O)cc(C)n1` [Compound 26, 1-(4-(5-chloro-2-fluorophenyl)-5-(isopropylthio)thiazol-2-yl)-4-(2,6-dimethylpyridin-4-yl)-3-methyl-1H-pyrazole-5-carboxylic Acid]: 5 to 10 µM. On to `Cc1noc(C)c1-c1nc(-n2nc(C)c(-c3cc(Cl)cc(Cl)c3)c2C(=O)O)sc1SC(C)C` [Compound 27, 4-(3,5-dichlorophenyl)-1-(4-(3,5-dimethylisoxazol-4-yl)-5-(isopropylthio)thiazol-2-yl)-3-methyl-1H-pyrazole-5-carboxylic Acid], for which the EC50 is more than 25 µM.

As to `Cc1nn(-c2nc(-c3cnn(C)c3)c(SC(C)C)s2)c(C(=O)O)c1-c1cc(Cl)cc(Cl)c1` [Compound 28, 4-(3,5-dichlorophenyl)-1-(5-(isopropylthio)-4-(1-methyl-1H-pyrazol-4-yl)thiazol-2-yl)-3-methyl-1H-pyrazole-5-carboxylic Acid], the EC50 was more than 25 µM. The result for `Cc1nn(-c2nc(-c3ccncc3)c(SC(C)C)s2)c(C(=O)O)c1-c1cc(Cl)cc(Cl)c1` [Compound 29, 4-(3,5-dichlorophenyl)-1-(5-(isopropylthio)-4-(pyridin-4-yl)thiazol-2-yl)-3-methyl-1H-pyrazole-5-carboxylic acid] reads more than 25 µM.
